Experimental data from PMC7751416, “Novel positive allosteric modulators of A2B adenosine receptor acting as bone mineralisation promoters” (Journal of Enzyme Inhibition and Medicinal Chemistry, 2020).

Experiments:
[1] = test system: MSCs; test: Quantification of mineralisation (Alizarin Red staining) by MSCs-derived osteoblasts; assay type: cell-based, human; conditions: MSCs 15 days in osteogenic medium, mean ± SEM
Protocol: Human bone marrow derived MSCs were cultured in normal growth medium (MSCGM, Sigma Aldrich), plated (5.000 cells/cm^2) in 75-cm^2 flasks and incubated at 37 °C in 5% CO2 and 95% air. The medium was changed to remove non adherent cells every 3 to 4 days and the cells were used at passages 2 to 6.
MSCs were seeded at a density of 3300 cells/cm^2 and maintained in growth medium for 2 days. Then, medium was replaced with Mesenchymal Stem Cell Osteogenic Differentiation Medium (Cat. N. C-28013, Sigma Aldrich) and treated in the absence (control) or in the presence of BAY60-6583 (5 nM) alone or in combination with the new compounds. Treatments were repeated every 3 days and the mineralisation was quantified after 15 days of treatment. The rate of mineralisation was quantified using alizarin red staining as previously reported. Briefly, cells were washed with PBS, fixed (4% formaldehyde in PBS) for 15 min and washed three times with PBS. Then, Alizarin Red S (1:100 in distilled water, adjusted to pH 4.2 and filtered) was added and incubated for 20 min, at the end cells were washed (five times) in 50% ethanol and air dried. For quantification, cells were destained overnight in 10% (w/v) cetylpyridinium chloride at room temperature and the absorbance was read using a spectrophotometer (Victor Wallac 2, Perkin Elmer) at 562 nm.
Figure 1. Effects of the new compounds on mineralisation mediated by MSCs-derived osteoblast. MSCs were cultured for 15 days in osteogenic medium with compounds at 1 μM concentration in the presence (A) or in the absence (B) of the A2B AR agonist BAY60-6583 (5 nM). After treatments, cells were stained with Alizarin Red and mineralisation was evaluated as reported in Experimental section. Data are expressed as percentage of mineralisation versus the CTRL set to 100% and represent the mean ± SEM of at least two independent experiments. Each experiment was performed in duplicate. *p < 0.05; **p < 0.01; ***p < 0.001 vs. CTRL. #p < 0.05; ###p < 0.001 vs. BAY60-6583 or NECA.

[2] = test system: MSCs; design: method as in PMID 25241343; conditions: read-out: EC50, potency on MSCs; cited from earlier work
[3] = biological target: T1, human A2B AR (Homo sapiens, UniProt P29275); test: Measurement of cyclic AMP levels in A2B AR CHO cells; assay type: cell-based
T1 construct: K. N. Klotz, Wurzburg University (gift); host or cells: CHO cells, stably transfected
T1 sequence (P29275 1-332): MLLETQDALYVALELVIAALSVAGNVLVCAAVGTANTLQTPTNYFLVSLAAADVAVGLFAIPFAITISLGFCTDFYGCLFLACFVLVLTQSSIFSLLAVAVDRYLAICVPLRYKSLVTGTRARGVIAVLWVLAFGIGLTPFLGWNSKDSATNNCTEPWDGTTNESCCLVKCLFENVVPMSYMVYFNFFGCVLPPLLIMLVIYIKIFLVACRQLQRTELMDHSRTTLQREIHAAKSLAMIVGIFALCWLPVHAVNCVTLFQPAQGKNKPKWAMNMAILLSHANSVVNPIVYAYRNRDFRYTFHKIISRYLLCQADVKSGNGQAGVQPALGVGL
Protocol: Intracellular cyclic AMP (cAMP) levels were measured using a competitive protein binding method, as previously reported[31] A2B AR CHO cells were seed at a density of 24 000 cell/cm^2 in a 24 multiwell plate. After 48 h, the medium was removed and the cells were incubated at 37 °C for 15 min with 500 µL of Dulbecco’s Modified Eagle Medium (DMEM) in the presence of ADA (1 U/mL) and the phosphodiesterase inhibitor Ro20-1724 (20 µM).
The agonist efficacy profile of the compounds at ARs was evaluated by assessing their ability to modulate intracellular cAMP levels in the absence of standard agonists. The antagonism profile of the new compounds was evaluated by assessing their ability to inhibit 100 nM NECA-mediated accumulation of cAMP. The new compounds were incubated 10 min before the addiction of the agonists. Then, cells were incubated in the reaction medium for 15 min at 37 °C. The reaction was stopped by the removal of the medium and the addition of 0.4 N HCl. After 30 min, lysates were neutralised with 4 N KOH and the suspension was centrifuged at 800 g for 5 min. For the determination of cAMP production, bovine adrenal cAMP-binding protein was incubated with [^3H]cAMP (2 nM) at 0 °C for 150 min in a total volume of 300 µL. Bound radioactivity was separated by rapid filtration. The radioactivity was measured by liquid scintillation spectrometry.
Figure 2. Effects of compound 9 as positive allosteric modulator of the A2B AR. A) Effects of 9 on NECA-mediated cAMP accumulation in human A2B AR-transfected CHO cells. CHO cells were treated with an EC50 NECA concentration (100 nM) in the absence or presence of different concentrations of the tested compound (1 nM–10 μM). […] CHO cells were treated with different NECA concentration (1 nM–10 μM) in the absence or presence of 9 (650 nM or 6.5 μM). After 15 min incubation, the reaction was stopped and the intracellular cAMP levels were quantified. The data are expressed as the percentage of cAMP/well versus the maximal NECA effect, which was set to 100% and represent the mean ± SEM of at least three different experiments. Each experiment was performed in duplicate.

[4] = biological target: T2, human A1 adenosine receptors (Homo sapiens, UniProt P30542); test: Human A1 adenosine receptor competition binding ([3H]DPCPX, CHO cell membranes); conditions: radioligand binding, A1 AR
T2 construct: K. N. Klotz, Wurzburg University (gift); host or cells: CHO cells, stably transfected; membranes used
T2 sequence (P30542 1-326): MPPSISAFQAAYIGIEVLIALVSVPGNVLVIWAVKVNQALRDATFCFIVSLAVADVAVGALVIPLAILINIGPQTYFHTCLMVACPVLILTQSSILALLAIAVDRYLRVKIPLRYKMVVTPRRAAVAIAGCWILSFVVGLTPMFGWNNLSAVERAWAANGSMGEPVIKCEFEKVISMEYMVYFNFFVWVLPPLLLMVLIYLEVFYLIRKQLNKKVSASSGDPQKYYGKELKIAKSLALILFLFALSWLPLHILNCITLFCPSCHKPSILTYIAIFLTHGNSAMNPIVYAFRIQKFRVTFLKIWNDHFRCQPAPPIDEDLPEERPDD
Protocol: (§1) ADA (Cat. N. 10102105001) was from Sigma Aldrich (Italy). All other reagents were from commercial sources and of the highest commercially available grade. CHO cells stably expressing human A1, A2A, A3 and A2B ARs were kindly supplied by Prof. K. N. Klotz, Wurzburg University, Germany. MSCs (Cat. N. SCC034) were purchased by Sigma Aldrich (Milan, Italy).
Competition binding experiments were performed as previously reported. […] R-PIA (50 µM) was used for the determination of non-specific binding.

[5] = biological target: T3, human A2A adenosine receptors (Homo sapiens, UniProt P29274); test: Human A2A adenosine receptor competition binding ([3H]NECA, CHO cell membranes); conditions: radioligand binding, A2A AR
T3 construct: K. N. Klotz, Wurzburg University (gift); host or cells: CHO cells, stably transfected; membranes used
T3 sequence (P29274 whole entry): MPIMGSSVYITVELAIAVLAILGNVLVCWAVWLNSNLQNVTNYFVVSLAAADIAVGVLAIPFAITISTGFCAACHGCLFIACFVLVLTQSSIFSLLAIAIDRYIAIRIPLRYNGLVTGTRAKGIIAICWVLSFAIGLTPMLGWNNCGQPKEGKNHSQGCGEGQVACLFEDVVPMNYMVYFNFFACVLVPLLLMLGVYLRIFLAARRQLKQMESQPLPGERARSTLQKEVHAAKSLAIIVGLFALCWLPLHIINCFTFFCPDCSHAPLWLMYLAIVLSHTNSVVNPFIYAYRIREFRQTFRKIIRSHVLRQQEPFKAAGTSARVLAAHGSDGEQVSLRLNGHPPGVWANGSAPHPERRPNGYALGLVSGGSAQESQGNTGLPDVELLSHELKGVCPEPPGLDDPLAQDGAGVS
Protocol: as §1
(§2) Competition binding experiments were performed as previously reported. Briefly, membranes of A2A CHO cells were incubated at 25 °C for 90 min in 500 µL of buffer in the presence of [^3H]NECA (30 nM) and six different concentrations of the newly synthesised compounds. NECA (100 µM) was used for the determination of non-specific binding.

[6] = biological target: T4, human A3 adenosine receptors (Homo sapiens, UniProt P0DMS8); test: Human A3 adenosine receptor competition binding ([3H]NECA, CHO cell membranes); conditions: radioligand binding, A3 AR
T4 construct: K. N. Klotz, Wurzburg University (gift); host or cells: CHO cells, stably transfected; membranes used
T4 sequence (P0DMS8 1-318): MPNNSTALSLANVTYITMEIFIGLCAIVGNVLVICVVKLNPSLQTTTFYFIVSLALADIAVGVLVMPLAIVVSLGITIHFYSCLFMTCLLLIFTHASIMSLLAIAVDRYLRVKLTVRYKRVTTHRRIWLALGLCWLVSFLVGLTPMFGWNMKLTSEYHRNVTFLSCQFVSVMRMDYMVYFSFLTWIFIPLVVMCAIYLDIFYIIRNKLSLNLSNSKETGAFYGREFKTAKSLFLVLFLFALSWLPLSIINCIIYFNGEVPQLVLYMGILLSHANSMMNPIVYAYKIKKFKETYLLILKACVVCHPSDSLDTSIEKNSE
Protocol: as §1
as §2, with “Briefly, cell” for “Briefly,”, “A3” for “A2A”, “180” for “90”

[7] = compound 1 μM alone, in the absence of BAY60-6583
[8] = compound 1 μM in the presence of BAY60-6583 (5 nM)
[9] = NECA concentration-response curves (1 nM-10 μM) in absence or presence of 9 (650 nM and 6.5 µM)

| melting point [°C] | Structure (SMILES) | percentage of mineralisation versus the CTRL set to 100% [1, 7] | percentage of mineralisation versus the CTRL set to 100% [1, 8] [%] | further results |
| --- | --- | --- | --- | --- |
| 137 to 139 | O=C(NCc1ccc(Cl)cc1)C(=O)c1cc2ccccc2o1 [Compound 9, N-(4-Chlorobenzyl)-2-(benzofuran-2-yl)glyoxylamide] | 111.5 ± 4.6% | 156.8 ± 7.6 | effect on efficacy of NECA in stimulating cAMP accumulation [3, 9]: significantly enhanced the efficacy of NECA; effect on potency of NECA in stimulating cAMP accumulation [3, 9]: without affecting agonist potency; EC50 ([3]; compound 1 nM-10 µM in the presence of NECA 100 nM, human A2B AR-transfected CHO cells, read-out: EC50, positive allosteric modulation of A2B AR (NECA-mediated cAMP accumulation)): 636 ± 65.3 nM; % cAMP production (vs NECA 100 nM set to 100%), Alone ([3]; compound 10 µM alone, CHO cells expressing human A2B AR, mean ± SEM): 2.7 ± 1.3%; % cAMP production (vs NECA 100 nM set to 100%), + agonist ([3]; compound 10 µM in the presence of NECA (100 nM), CHO cells expressing human A2B AR, mean ± SEM): 184.0 ± 11.7 %; Ki [4]: > 10000 nM; Ki [5]: > 10000 nM; Ki [6]: > 10000 nM |
| 95.6 to 95.8 | O=C(NCc1ccccc1)C(=O)c1cccs1 [Compound 10, N-Benzyl-2-(thien-2-yl)glyoxylamide] | inactivity | 150.6 ± 2.6 | – |
| 88 to 90 | Cn1cc(C(=O)C(=O)c2ccccc2)c2ccccc21 [Compound 13, 1-(1-Methyl-1H-indol-3-yl)-2-phenyl-1,2-ethanedione] | – | – | – |

Second part, the molecule before the results:

| Structure (SMILES) | melting point [°C] | percentage of mineralisation versus the CTRL set to 100% [1, 7] | percentage of mineralisation versus the CTRL set to 100% [1, 8] [%] | further results |
| --- | --- | --- | --- | --- |
| N#Cc1c(N)nc(SCC(N)=O)c(C#N)c1-c1ccc(OCC2CC2)cc1 [BAY60-6583, reference compound] | – | – | – | percentage of mineralisation versus the CTRL set to 100% ([1]; BAY60-6583 5 nM alone): 129.5 ± 1.9%; EC50 [2]: 6 nM |
| O=C(Nc1ccccc1)C(=O)c1cn(CCc2ccccc2)c2ccccc12 [Compound 4] | 139 to 140 | 130.0 ± 6.8% | 179.2 ± 9.6 | – |
| O=C(NCc1ccccc1)C(=O)c1cn(CCc2ccccc2)c2ccccc12 [Compound 5, N-Benzyl-2-(1-phenylethyl-1H-indol-3-yl)glyoxylamide] | 83 to 85 | 128.7 ± 3.6% | 152.3 ± 4.3 | – |
| Cn1cc(C(=O)C(=O)Nc2ccccc2)c2ccccc21 [Compound 6, N-Phenyl-2-(1-methyl-1H-indol-3-yl)glyoxylamide] | 167 to 169 | – | – | – |
| Cn1cc(C(=O)C(=O)NCc2ccccc2)c2ccccc21 [Compound 7, N-Benzyl-2-(1-methyl-1H-indol-3-yl)glyoxylamide] | 147 to 149 | – | – | – |
| O=C(NCc1ccccc1)C(=O)c1csc2ccccc12 [Compound 8, N-Benzyl-2-(benzothien-3-yl)glyoxylamide] | 87 to 89 | inactivity | – | – |
